# Measurements from patent US10300143B2, “Compositions for treating cancer and methods for making the same” (THE BRIGHAM AND WOMEN'S HOSPITAL, INC., priority 2012, dated 2019).
# How the values were obtained:
# [1] = Insulin tolerance test using PI103-SNPs; type: in vivo, mice (murine 4T1 breast cancer model); details: 5 mg/kg single dose, insulin 0.75 U/kg 1 hour later, glucose 45 min after insulin
# Description: Random fed mice (murine 4T1 breast cancer model) were injected with a single dose of Empty nanoparticles (Control), Free PI-103 (5 mg/kg) and PI103-SNPs via tail vain injections. Freshly prepared Insulin solution (0.75 U/Kg) in 0.1 ml 0.9% NaCl was injected intraperitoneally to mice 1 hour after the drug administration. The blood glucose levels were measured before and 45 min after the insulin injections using glucometer.
# [2] = tested on: K-Ras^LSL/+/Pten^fl/fl ovarian cancer; test: Efficacy study of PI103-SNPs in murine ovarian cancer tumor model; type: in vivo, mice; details: after 3 doses, 5 mg/kg
# Description: Ovarian adenocarcinomas were induced in genetically engineered K-Ras^LSL/+/Pten^fl/fl mice via intrabursal delivery of adenovirus-carrying Cre recombinase. Tumor cells were also engineered to express luciferase once activated by Adeno-Cre to make tumor imaging possible before and after drug treatment. Once mice developed medium to large tumors, they were placed into one of four treatment groups (vehicle, Free-PI-103 5 mg/kg, PI-103-SNP 5 mg/kg, and iRGD-PI103-SNP 5 mg/kg) and all drugs were administered via tail vein injection. Tumor imaging in vivo was performed using an 1VIS Lumina II Imaging System. Quantification of bioluminescence was achieved by using Living Image Software 3.1 (Caliper Life Sciences). Images were taken a day prior to initial treatment (day 0, baseline image), after 3 treatments, and 1 d after 5 treatments.
# Ovarian adenocarcinomas were induced in genetically engineered K-ras isu+/Pten mice via intrabursal delivery of adenovirus-carrying Cre recombinase. Tumor cells were also engineered to express luciferase once activated by Adeno-Cre to make tumor imaging possible before and after drug treatment. […] Quantification of bioluminescence was achieved by using Living Image Software 3.1™ (Caliper Life Sciences). […]
# [3] = cited from earlier work
structure (smiles),measurement,setting,value
Oc1cccc(-c2nc(N3CCOCC3)c3oc4ncccc4c3n2)c1 [PI103],blood glucose level after insulin injection,[1],only a minor decrease in blood glucose level
same,tumor luciferase bioluminescence,[2],significant tumor regression as compared to vehicle control
same,aqueous solubility,[3],limited aqueous solubility
